Experimental data published in BindingDB's records for doi:10.1074/jbc.M406801200 (The Scripps Research Institute, 2004).

Biological target: Bifunctional purine biosynthesis protein ATIC (Homo sapiens, UniProt P31939)
Test: AICAR Tfase Inhibition Assay
Conditions: pH 7.5; 22 °C
Description: The human ATIC enzyme was used for the inhibition assay. The assay buffer was flushed with nitrogen to minimize oxidization of cofactor 10-f-THF. The reaction was initiated by adding the substrate AICAR to reaction mixtures containing ATIC, test compounds, and different concentrations of cofactor. […] The THF was generated in the transfer reaction of the formyl group from cofactor to AICAR to produce 5-formyl-AICAR. IC50 values were measured from dose-response curves.

Bifunctional purine biosynthesis protein ATIC, sequence (P31939 whole entry): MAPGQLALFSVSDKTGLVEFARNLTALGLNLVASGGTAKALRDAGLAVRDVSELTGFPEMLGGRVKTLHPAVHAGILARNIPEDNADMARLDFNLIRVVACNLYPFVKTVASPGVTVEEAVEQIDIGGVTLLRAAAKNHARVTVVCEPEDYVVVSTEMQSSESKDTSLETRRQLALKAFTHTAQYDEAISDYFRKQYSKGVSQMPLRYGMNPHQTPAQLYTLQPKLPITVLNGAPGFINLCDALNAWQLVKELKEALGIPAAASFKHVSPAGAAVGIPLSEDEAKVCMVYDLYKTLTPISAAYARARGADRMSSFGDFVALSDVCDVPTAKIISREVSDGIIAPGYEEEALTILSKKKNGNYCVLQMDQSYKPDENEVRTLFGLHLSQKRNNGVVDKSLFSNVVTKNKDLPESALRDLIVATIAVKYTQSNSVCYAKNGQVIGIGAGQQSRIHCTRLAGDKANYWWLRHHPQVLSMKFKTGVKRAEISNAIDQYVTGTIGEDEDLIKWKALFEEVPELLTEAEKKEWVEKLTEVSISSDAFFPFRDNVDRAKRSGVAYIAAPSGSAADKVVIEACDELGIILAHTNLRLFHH

Compound	IC50 [µM]
Cc1cc(N=Nc2c(C)[nH]n(-c3ccc(S(=O)(=O)O)cc3)c2=O)ccc1S(=O)(=O)Nc1ccccc1	11.6
Cc1ccc(OS(=O)(=O)c2ccc(N=Nc3c(C)[nH]n(-c4ccc(Cl)cc4S(=O)(=O)O)c3=O)cc2)cc1 [5-chloro-2-{5-hydroxy-3-methyl-4-[(E)-2-[4-(4-methylphenoxysulfonyl)phenyl]diazen-1-yl]-1H-pyrazol-1-yl}benzene-1-sulfonic acid]	3.3
Cc1[nH]n(-c2cc(Cl)c(S(=O)(=O)O)cc2Cl)c(=O)c1N=Nc1ccc(S(=O)(=O)O)cc1 [yellow 2G]	20.1
O=S(=O)(O)Oc1c(-c2sc3c(ccc4cccc(Cl)c43)c2OS(=O)(=O)O)[nH]c2ccc(Br)cc12 [{4-[5-bromo-3-(sulfooxy)-1H-indol-2-yl]-13-chloro-3-thiatricyclo[7.4.0.0^{2,6}]trideca-1(9),2(6),4,7,10,12-hexaen-5-yl}oxidanesulfonic acid]	1.4
Cc1[nH]n(-c2ccc(S(=O)(=O)O)cc2)c(=O)c1N=Nc1cc(Cl)cc(S(=O)(=O)O)c1C(=O)O [4-chloro-2-[(E)-2-[5-hydroxy-3-methyl-1-(4-sulfophenyl)-1H-pyrazol-4-yl]diazen-1-yl]-6-sulfobenzoic acid]	41.6
